“Also recorded” adds a separate entry of the source.
Tests used:
[1] = system: d(A)12; assay: Melting temperature (Tm) of duplexes with d(A)12; format: binding; conditions: for Tm: d(A)12 as complementary strand, 1:1, PIPES buffer at 120 mM NaCl
Procedure: Melting Temperature (Tm) Measurements. Samples for Tm measurements were prepared by the addition of concentrated stock solutions of the d(T)12 (18) or CDU modified d(T)12 (19-24) and d(A)12stock solution to 1.0 mL 10 mM 1,4-piperazine-bis-(ethane-sulfonic acid) (PIPES) buffer (pH 7.0) containing 100 mM NaCl, and 1 mM EDTA, in amounts to give a 1:1 ratio. Each strand was present at 40 μM. Molar extinction coefficients ε260 (per base) were calculated as following: 18: 8,150; d(A)12: 12,280; 19-24: 8,200. The samples were heated to 85° C. and cooled slowly to room temperature before melting. The insulated cell compartment of the UV spectrophotometer was continuously warmed from 0° C. to 85° C. at the rate 0.5° C. per minute. Samples were heated in quartz cuvettes fitted with a teflon stopper (1 cm path length). The absorption change at 260 nm was followed as a function of temperature, and Tm values were obtained from first derivative plots after the data were transferred to a Macintosh computer for visualization and analysis.

[2] = system: polyriboadenylic acid; assay: Melting temperature (Tm) of duplexes with polyriboadenylic acid; format: binding; conditions: polyriboadenylic acid as target; PIPES buffer at 120 mM NaCl
[3] = system: calf spleen phosphodiesterase; assay: Resistance to calf spleen phosphodiesterase; format: in vitro ADME; conditions: in words
[4] = system: Phosphodiesterase I (EC 3.1.4.1) type VIII from Crotalus durissus terrificus venom; assay: Stability towards snake venom phosphodiesterase (SVPD) 3′-exonuclease, HPLC; format: in vitro ADME; conditions: for % remaining: SVPDE; for T½: degradation by SVPDE, disappearance of 12-mer (11-mer for CDU-modified oligos)
Procedure: Resistance of dodeca (thymidine phosphates) containing CDU (19-24) against phosphodiesterase I (EC 3.1.4.1): To 100 mM Tris-HCl buffer, pH 8.9 (90 μL) containing 20 mM MgCl2, 0.1 A260 ODU of oligonucleotide 19-24 (5 μL), 1.5×10-3 unit (5 μL) of phosphodiesterase was added. A blank with no enzyme, and a control reaction with d(T)12 were assayed simultaneously. Reactions were maintained at 37° C. for 10 minutes and then 50 μL aliquots were analyzed by HPLC under conditions described above.
The replacement of all natural phosphodiester linkages within oligonucleotide chain by methylphosphonate ones is an example of modifications that ensure complete stability of the oligonucleotide towards exo- and endonucleases. To test the resistance of CDU-oligonucleotides towards 3′-exonucleolytic activity (hydrolysis of the oligonucleotide from 3′-end), snake venom phosphodiesterase (SVPD) from Crotalus durissus terrificus was used. It was discovered that these oligonucleotides are remarkably stable to 3′-exonucleases if the CDU residue is incorporated in the 3′- or both 3′- and 5′-end. The oligonucleotide bearing both 3′- and 5′-modifications (24) was also resistant to SVPD and calf spleen phosphodiesterase.
The half-life (T½) of 3′-CDU-, 3′,5′-CDU- and 3′CDU2-oligonucleotides were determined by kinetic study of their degradation by SVPDE (snake venom phosphodiesterase). Aliquots of enzymatic reaction (0, 5, 10, 20, 40, 80 and 240 minutes) were analyzed by HPLC. Calculations of half life time were based on the disappearance of 12-mer (or 11-mer in the case of CDU-modified oligos) after standardization with 2′-deoxycytidine used as internal standard.

[5] = system: YMDD motif of HIV-1 RT; assay: In vitro site directed mutagenesis of HIV-1 reverse transcriptase gene, transformation into E. coli and sequencing; format: cell-based; conditions: sequencing of mutants; for amino acid change: YMDD motif
Description: Example 6 describes the in vivo mutation of the RT gene within the YMDD motif, incorporated into a proper vector in E. coli cells. The mutagenic oligonucleotide DNA target region is the conserved YMDD motif (nucleotides 5′ 2678 to 3′ 2689) of HIV-1 RT. The mutagenic oligonucleotides used were
The procedure for in vitro site directed mutagenesis used in this experiment was a modification of that used in the Altered Sites mutagenesis Kit #Q6210 (Promega Corp., Madison, Wis.). Briefly, oligonucleotides, 5′-AATACATGGA(CDU)GATTTGTAT-3′ (SEQ ID NO:1) and 5′-AATACATGG(CDU)(CDU)GATTTGTAT-3′ (SEQ ID NO:2), and a control, located on the putative catalytic active site for HIV-1 RT (5′-2676 to 3′-2696) were 5′ phosphorylated using T4 polynucleotide kinase. The reaction was terminated by heating to 70° C. for 10 min. The mutagenesis annealing reaction was performed by adding 0.05 pmol of pHIVALT-1 ssDNA, 0.25 pmol ampicillin repair oligonucleotide (supplied in the kit), 1.25 pmol of the 5′ phosphorylated mutagenic oligo, and an annealing buffer supplied in the kit in a final volume of 20 μL. The control oligonucleotide reactions for this experiment were done separately along with an added reaction that contained ampicillin repair oligo but no mutagenic oligo 5′-AATACATGGA(CDU)GATTTGTAT-3′ (SEQ ID NO: 1) and 5′-AATACATGG(CDU)(CDU) GATTTGTAT-3′ (SEQ ID NO:2) and control unmodified. The reactions were then heated to 70° C. for 5 min and allowed to cool to room temperature over a 15-20 min period. The annealing reactions were placed on ice and the following reagents were added: 3 μL 10× synthesis buffer (supplied in kit), 1 μL T4 DNA polymerase (10 U/μL ), 1 μL T4 DNA ligase (2 U/μL ), and 5 μL sterile dHO. The 30 μL reaction was incubated at 37° C. for 90 min to perform second strand synthesis and ligation. […]

| Substance | Tm [1] | Tm [2] | % remaining ([4]; time 0 min) | % remaining ([4]; time 5 min) | % remaining ([4]; time 10 min) | % remaining ([4]; time 40 min) | T½ [4] | also measured |
| --- | --- | --- | --- | --- | --- | --- | --- | --- |
| 5′CDUd(T)11 [Oligomer 19] |  |  |  |  |  |  |  | Tm ([1]; listed as 19): 28.0 °C; Tm ([1]; listed as CDU(dT)11): 28.8 °C |
| 5′CDUd(T)9CDUd(T) [Oligomer 24] | 20.0 °C | 17.0 °C | 100% | 56.2% | 38.1% | 14.8% | 5.06 min | resistance to calf spleen phosphodiesterase [3]: resistant; resistance towards 3′-exonucleolytic activity (SVPD) ([4]; in words): resistant |
| 5′-AATACATGG(CDU)(CDU)GATTTGTAT-3′ [RL-2] |  |  |  |  |  |  |  | amino acid change [5]: YMDD to YRVD |
| d(T)12 [Oligomer 18, reference compound] | 29.0 °C | 30.0 °C | 100% | 9.1% | 2.6% |  | 0.5 min |  |
| 5′d(T)6CDUd(T)5 [Oligomer 21] | 15.2 °C |  |  |  |  |  |  |  |
| 5′d(T)9(CDU)2d(T) [Oligomer 23] | 15.3 °C | 10.0 °C | 100% | 82.0% |  | 78.9% | 76.2 min | % remaining ([4]; time 20 min): 80.0%; % remaining ([4]; time 80 min): 54.0%; % remaining ([4]; time 240 min): 10.5% |
| 5′d(T)10CDUd(T) [Oligomer 22] | 20.5 °C |  | 100% | 54.8% | 44.0% | 23.2% | 6.7 min | difference in Tm ([1]; between oligonucleotides 20 and 22): 7-8 °C; % remaining ([4]; time 20 min): 38.3%; % remaining ([4]; time 80 min): 11.0% |
| 5′d(T)CDUd(T)10 [Oligomer 20] | 27.2 °C | 25.7 °C |  |  |  |  |  |  |
| 5′-AATACATGGA(CDU)GATTTGTAT-3′ [RL-1] |  |  |  |  |  |  |  | clones in which the mutation occurred next to the base opposite to CDU on the complimentary strand [5]: 60%; amino acid change [5]: YMDD to YMVD; also recorded: YMDD to YMGD |
